Test results from US20250381269A1, “BISPECIFIC ANTIBODY BINDING EGFR AND B7-H3” (FORTVITA BIOLOGICS (SINGAPORE) PTE. LTD., priority 2022, published 2025).

Columns and labels:
H1975 = test: Proliferation inhibition experiment, H1975 (NSCLC); format: cell-based; details: EGFR L858R T790M, KRAS WT
Description: (§1) • (1) NSCLC: plated at 1500-2500 cells/100 μL in a 96-well low-adsorption plate (Corning, CLS7007-24EA) for 3D cell culture, in which the following cell lines and specific amounts were used: • NSCLC: 2000 cells/100 μL/well • NCI-H292: Cell Bank of the Chinese Academy of Sciences, SCSP-582 • NCI-H322: Cobioer, CBP60134 • NCI-H1650: ATCC, CRL-5883 • NCI-H1975: ATCC, CRL-5908 • SK-MES-1: CoBioer, CBP60152 • NCI-H1703: ATCC, HTB-43 • PC9+hB7H3: constructed as described above • CRC and HNSCC: plated at 1500-2000 cells/100 μL in a 96-well white-bottom plate (NUNC, 136101) for 2D cell culture, in which the following cell lines and specific amounts were used: • CRC: 1500 cells/100 μL/well • CCK-81: CoBioer, CBP60581 • HT-55: CoBioer, CBP60012 • H508: CoBioer, CBP60795 • LS180: CoBioer, CBP60034 • HNSCC: 1500 cells/100 μL/well • TE-1: CoBioer, CBP60655 • Colo680: CoBioer, CBP60452. (2) The antibody molecules prepared in advance by dilution were added to the corresponding cell well plate, mixed well, and cultured in an incubator at 37° C. with 5% CO2 for 5 days. • (3) After 5 days of continuous culture for proliferation inhibition assay, the Cell-Titer reagent (Promega, G7572) prepared in advance was added to cell wells, the plate was left to stand at room temperature for 15-25 min in the dark, and then CRC and HNSCC cells were directly detected by a multimode microplate reader (Molecular Devices, Spectra MAXi3). • (4) NSCLC: Cell-Titer and the cell mixture were transferred to a 96-well white-bottom plate (NUNC, 136101) and detected by a multimode microplate reader (Molecular Devices, Spectra MAXi3).

SK-MES-1 = test: Proliferation inhibition experiment, SK-MES-1 (NSCLC); format: cell-based; details: EGFR Amplification, KRAS WT
Description: as §1

[1] = system: NCI-H358 tumor-bearing mice; test: Anti-tumor efficacy in NCI-H358 tumor-bearing mice, combination with AMG510; format: in vivo, NOG mice; details: NCI-H358, NOG mice, day 33; for Tumor volume (mm^3): antibodies 10 mg/kg i.p. Q3-4D x4 (h-IgG 20 mg/kg), AMG510 10 mg/kg intragastric QD x14; for Tumor growth inhibition (%): antibodies 10 mg/kg i.p. Q3-4D x4, AMG510 10 mg/kg intragastric QD x14, vs h-IgG 20 mg/kg
Description: SPF female NOG mice (purchased from Beijing Vital River Laboratory Animal Technology Co., Ltd.) with certificate No. 1100112211001153625 were used in the experiment.
NCI-H358 cells were routinely subcultured for the subsequent in-vivo experiment. The cells were collected by centrifugation. Then the NCI-H358 cells were resuspended in an equal-proportion mixture of PBS (1×) and Matrigel Matrix (Corning) to prepare a cell suspension with a cell concentration of 25×10^6 cells/mL. On day 0, 0.2 mL of the cell suspension was taken and subcutaneously inoculated to the right abdominal area of NOG mice to establish NCI-H358 tumor-bearing mouse models.
Six days after the tumor cell inoculation, the tumor volume in each mouse was measured. The mice were grouped (with 7 mice in each group).
Administration was performed on days 6, 9, 12, and 15 after the inoculation of NCI-H358 cells. Mice were monitored for tumor volume and body weight twice a week. […] Mice were monitored for tumor volume twice a week, and were monitored for body weight every day during the administration, and twice a week after the end of administration. […] On day 33 after the inoculation, the relative tumor growth inhibition (TG1%) was calculated by the following formula: TG1%=100%×(control group tumor volume−treatment group tumor volume)/(control group tumor volume−control group tumor volume before administration).
Tumor volume measurement: The maximum length of major axis (L) and maximum length of minor axis (W) of tumors were measured with a vernier caliper, and tumor volume was calculated by the following formula: V=L×W^2/2. The mice were weighed using an electronic balance.

LS180 = test: Proliferation inhibition experiment, LS180 (CRC); format: cell-based; details: EGFR R521K, KRAS G12D
Description: • (1) NSCLC: plated at 1500-2500 cells/100 μL in a 96-well low-adsorption plate (Corning, CLS7007-24EA) for 3D cell culture, in which the following cell lines and specific amounts were used: • NSCLC: 2000 cells/100 μL/well • NCI-H292: Cell Bank of the Chinese Academy of Sciences, SCSP-582 • NCI-H322: Cobioer, CBP60134 • NCI-H1650: ATCC, CRL-5883 • NCI-H1975: ATCC, CRL-5908 • SK-MES-1: CoBioer, CBP60152 • NCI-H1703: ATCC, HTB-43 • PC9+hB7H3: constructed as described above • CRC and HNSCC: plated at 1500-2000 cells/100 μL in a 96-well white-bottom plate (NUNC, 136101) for 2D cell culture, in which the following cell lines and specific amounts were used: • CRC: 1500 cells/100 μL/well • CCK-81: CoBioer, CBP60581 • HT-55: CoBioer, CBP60012 • H508: CoBioer, CBP60795 • LS180: CoBioer, CBP60034 • HNSCC: 1500 cells/100 μL/well • TE-1: CoBioer, CBP60655 • Colo680: CoBioer, CBP60452. […]

H1703 = format: cell-based, human; details: EGFR Amplification, KRAS WT, huPBMC:target 50:1, 8 h, LDH
Description: • (1) A CTS medium (Gibco, A3021002) was preheated at 37° C. huPBMC (Miaotong Biotechnology, PB 100C-W) was quickly thawed in a water bath, and then the cells were added slowly to 8 mL of CTS medium (containing 1% DNase). • (2) The mixture was centrifuged at 300 g for 8 min. The supernatant was removed, and the cells were resuspended in 30 mL of CTS (containing 10 μL of DNase), transferred to a T75 flask, and incubated in an incubator at 37° C. overnight. • (3) The suspension cells cultured overnight were taken and centrifuged at 300 g for 8 min. The supernatant was removed, and the cell density was adjusted with CTS. According to an effector/target ratio of effector cells (huPBMCs) to target cells (tumor cells in Table 5) of 50:1, huPBMCs and the tumor cells prepared in advance (Target: huPBMC=1.5E4/7.5E5 cells/well/100 μL) were plated in a 96-well low-adsorption plate (Corning. CLS7007-24EA). • (4) The diluted antibody drug was added to the corresponding cell well plate and cultured at 37° C. with 5% CO2 for 8 h. • (5) The mixture was centrifuged at 300 g for 5 min. 50 μL of the supernatant was transferred to a 96-well transparent flat-bottom plate ((NUNC, 136101), 50 μL of the LDH reagent (Promega, G1780) prepared in advance was added to the corresponding well plate, and the plate was left to stand at room temperature for 15-30 min in the dark. • (6) 50 μL LDH stop solution (Promega, G1780) was taken and detected by a multimode microplate reader (Molecular Devices, Spectra MAXi3) at 490 nm for readings.

Substance	Max inhibition (%) Mean ± SD (H1975) [%]	IC50 (H1975; 3D culture, 5 days) [nM]	Max inhibition (%) Mean ± SD (SK-MES-1) [%]	IC50 (SK-MES-1; 3D culture, 5 days) [nM]	Tumor volume (mm^3) [1] [mm^3]	Tumor growth inhibition (%) [1] [%]	Max inhibition (%) Mean ± SD (LS180) [%]	EC50 (H1703) [nM]
amivantamab [JNJ372]	47.9 ± 3.0	5.67	66.1 ± 3.7	9.82	196	82	–	–
zalutumumab [Zalu mAb]	51.0 ± 2.3	–	67.8 ± 4.1	–	126	111	41.0 ± 2.2	0.007
